Data from patent US20090018134A1, “Compounds - 945” (AstraZeneca AB, priority 2007, published 2009).
Like-named read-outs stand apart in the source and are kept apart here.

Target: T1, mTOR (Homo sapiens, UniProt P42345)
T1 construct: FLAG; made in house
Assay: In Vitro mTOR Kinase Assay (Echo), Test (a)(ii)
Format: biochemical
In short: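 Compounds were acoustically dispensed, then incubated with FLAG-tagged mTOR (1362-2549) for 2 hours at room temperature. Reactions were quenched with EDTA plus detection antibody and AlphaScreen beads and left overnight in the dark before reading. Loss of phospho-T389 signal gave IC50 values.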

[1] = read-out: mTOR Kinase Assay (Echo)
[2] = table of enzyme assay Test (a)(ii), read-out: Test (a)(ii) IC50

T1 sequence (P42345 1362-2549): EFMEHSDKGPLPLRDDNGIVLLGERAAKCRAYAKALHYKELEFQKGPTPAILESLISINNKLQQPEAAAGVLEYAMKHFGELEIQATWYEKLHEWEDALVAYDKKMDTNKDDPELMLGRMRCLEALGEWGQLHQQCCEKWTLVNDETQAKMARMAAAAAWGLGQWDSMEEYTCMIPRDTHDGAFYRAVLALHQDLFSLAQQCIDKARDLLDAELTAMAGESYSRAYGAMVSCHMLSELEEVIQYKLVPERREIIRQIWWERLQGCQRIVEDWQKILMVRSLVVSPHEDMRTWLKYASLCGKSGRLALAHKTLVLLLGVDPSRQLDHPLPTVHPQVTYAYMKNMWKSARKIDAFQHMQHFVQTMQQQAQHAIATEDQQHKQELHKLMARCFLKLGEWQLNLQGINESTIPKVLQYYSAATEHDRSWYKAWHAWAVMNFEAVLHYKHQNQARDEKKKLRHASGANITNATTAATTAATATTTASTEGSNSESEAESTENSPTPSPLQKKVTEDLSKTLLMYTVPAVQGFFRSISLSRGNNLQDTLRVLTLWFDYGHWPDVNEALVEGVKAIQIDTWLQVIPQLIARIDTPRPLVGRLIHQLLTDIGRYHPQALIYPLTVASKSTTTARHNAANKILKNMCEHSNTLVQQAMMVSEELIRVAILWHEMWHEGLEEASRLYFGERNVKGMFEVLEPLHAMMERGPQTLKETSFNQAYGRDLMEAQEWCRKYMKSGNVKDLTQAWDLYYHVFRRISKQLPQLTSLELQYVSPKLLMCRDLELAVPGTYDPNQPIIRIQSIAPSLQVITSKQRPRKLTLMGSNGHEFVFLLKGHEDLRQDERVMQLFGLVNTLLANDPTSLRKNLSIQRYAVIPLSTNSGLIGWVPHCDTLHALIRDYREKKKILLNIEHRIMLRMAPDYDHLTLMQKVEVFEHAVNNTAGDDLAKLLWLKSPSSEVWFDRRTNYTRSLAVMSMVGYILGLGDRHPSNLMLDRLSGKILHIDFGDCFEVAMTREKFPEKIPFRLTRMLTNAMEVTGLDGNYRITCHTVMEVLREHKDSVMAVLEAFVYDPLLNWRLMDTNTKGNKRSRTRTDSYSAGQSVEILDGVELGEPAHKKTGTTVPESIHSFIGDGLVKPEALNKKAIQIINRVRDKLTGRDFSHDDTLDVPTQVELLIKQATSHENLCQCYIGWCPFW

| SMILES | IC50 [1] | IC50 [2] |
| --- | --- | --- |
| CCS(=O)(=O)C1(c2cc(N3CCOC[C@@H]3C)nc(-c3ccc(NC(=O)Nc4ccccn4)cc3)n2)CC1 [Example 11l, 1-[4-[4-(1-ethylsulfonylcyclopropyl)-6-[(3S)-3-methylmorpholin-4-yl]pyrimidin-2-yl]phenyl]-3-pyridin-2-yl-urea] | 3.56 nM |  |
| CCS(=O)(=O)C1(c2cc(N3CCOC[C@@H]3C)nc(-c3ccc(NC(=O)Nc4cnn(C)c4)cc3)n2)CC1 [Example 11m, 1-[4-[4-(1-ethylsulfonylcyclopropyl)-6-[(3S)-3-methylmorpholin-4-yl]pyrimidin-2-yl]phenyl]-3-(1-methylpyrazol-4-yl)urea] | 4.37 nM |  |
| CS(=O)(=O)C1(c2cc(N3CCOCC3)nc(-c3ccc(NC(=O)NC4CC4)cc3)n2)CC1 [Example 12, 3-Cyclopropyl-1-[4-[4-(1-methylsulfonylcyclopropyl)-6-morpholin-4-ylpyrimidin-2-yl]phenyl]urea] | 4.21 nM |  |
| CNC(=O)Nc1ccc(-c2nc(N3CCOCC3)cc(C3(S(C)(=O)=O)CC3)n2)cc1 [Example 12a, 3-methyl-1-[4-[4-(1-methylsulfonylcyclopropyl)-6-morpholin-4-ylpyrimidin-2-yl]phenyl]urea] | 1.67 nM |  |
| CCNC(=O)Nc1ccc(-c2nc(N3CCOCC3)cc(C3(S(C)(=O)=O)CC3)n2)cc1 [Example 12b, 3-ethyl-1-[4-[4-(1-methylsulfonylcyclopropyl)-6-morpholin-4-ylpyrimidin-2-yl]phenyl]urea] | 2.71 nM |  |
| CS(=O)(=O)C1(c2cc(N3CCOCC3)nc(-c3ccc(NC(=O)NC4CCC4)cc3)n2)CC1 [Example 12c, 3-cyclobutyl-1-[4-[4-(1-methylsulfonylcyclopropyl)-6-morpholin-4-ylpyrimidin-2-yl]phenyl]urea] | 1.52 nM | 7.51 nM |
| CS(=O)(=O)C1(c2cc(N3CCOCC3)nc(-c3ccc(NC(=O)NCCO)cc3)n2)CC1 [Example 12d, 3-(2-hydroxyethyl)-1-[4-[4-(1-methylsulfonylcyclopropyl)-6-morpholin-4-ylpyrimidin-2-yl]phenyl]urea] | 1.55 nM |  |
| CC(C)(CO)NC(=O)Nc1ccc(-c2nc(N3CCOCC3)cc(C3(S(C)(=O)=O)CC3)n2)cc1 [Example 12e, 3-(1-hydroxy-2-methylpropan-2-yl)-1-[4-[4-(1-methylsulfonylcyclopropyl)-6-morpholin-4-ylpyrimidin-2-yl]phenyl]urea] | 4.59 nM |  |
| CN(C)CCNC(=O)Nc1ccc(-c2nc(N3CCOCC3)cc(C3(S(C)(=O)=O)CC3)n2)cc1 [Example 12f, 3-(2-dimethylaminoethyl)-1-[4-[4-(1-methylsulfonylcyclopropyl)-6-morpholin-4-ylpyrimidin-2-yl]phenyl]urea] | 60.5 nM | 350 nM |
| CCCNC(=O)Nc1ccc(-c2nc(N3CCOCC3)cc(C3(S(C)(=O)=O)CC3)n2)cc1 [Example 12g, 1-[4-[4-(1-methylsulfonylcyclopropyl)-6-morpholin-4-ylpyrimidin-2-yl]phenyl]-3-propylurea] | 2.73 nM |  |
| CS(=O)(=O)C1(c2cc(N3CCOCC3)nc(-c3ccc(NC(=O)NCCCO)cc3)n2)CC1 [Example 12h, 3-(3-hydroxypropyl)-1-[4-[4-(1-methylsulfonylcyclopropyl)-6-morpholin-4-ylpyrimidin-2-yl]phenyl]urea] | 3.92 nM |  |
| Cn1cc(NC(=O)Nc2ccc(-c3nc(N4CCOCC4)cc(C4(S(C)(=O)=O)CC4)n3)cc2)cn1 [Example 12i, 3-(1-methylpyrazol-4-yl)-1-[4-[4-(1-methylsulfonylcyclopropyl)-6-morpholin-4-ylpyrimidin-2-yl]phenyl]urea] | 0.771 nM |  |
| CS(=O)(=O)C1(c2cc(N3CCOCC3)nc(-c3ccc(NC(=O)NC4CC4)cc3)n2)CCCC1 [Example 12j, 3-cyclopropyl-1-[4-[4-(1-methylsulfonylcyclopentyl)-6-morpholin-4-ylpyrimidin-2-yl]phenyl]urea] | 1.67 nM |  |
| CNC(=O)Nc1ccc(-c2nc(N3CCOCC3)cc(C3(S(C)(=O)=O)CCCC3)n2)cc1 [Example 12k, 3-methyl-1-[4-[4-(1-methylsulfonylcyclopentyl)-6-morpholin-4-ylpyrimidin-2-yl]phenyl]urea] | 4.3 nM |  |
| CS(=O)(=O)C1(c2cc(N3CCOCC3)nc(-c3ccc(NC(=O)NCCO)cc3)n2)CCCC1 [Example 12l, 3-(2-hydroxyethyl)-1-[4-[4-(1-methylsulfonylcyclopentyl)-6-morpholin-4-ylpyrimidin-2-yl]phenyl]urea] | 1.38 nM |  |
| CC(C)(CO)NC(=O)Nc1ccc(-c2nc(N3CCOCC3)cc(C3(S(C)(=O)=O)CCCC3)n2)cc1 [Example 12m, 3-(1-hydroxy-2-methylpropan-2-yl)-1-[4-[4-(1-methylsulfonylcyclopentyl)-6-morpholin-4-ylpyrimidin-2-yl]phenyl]urea] | 10.1 nM |  |
| CN(C)CCNC(=O)Nc1ccc(-c2nc(N3CCOCC3)cc(C3(S(C)(=O)=O)CCCC3)n2)cc1 [Example 12n, 3-(2-dimethylaminoethyl)-1-[4-[4-(1-methylsulfonylcyclopentyl)-6-morpholin-4-ylpyrimidin-2-yl]phenyl]urea] | 238 nM |  |
| CS(=O)(=O)C1(c2cc(N3CCOCC3)nc(-c3ccc(NC(=O)NCCCO)cc3)n2)CCCC1 [Example 12o, 3-(3-hydroxypropyl)-1-[4-[4-(1-methylsulfonylcyclopentyl)-6-morpholin-4-ylpyrimidin-2-yl]phenyl]urea] | 5.09 nM |  |

The remaining lines, values ahead:

| IC50 [1] | IC50 [2] | SMILES |
| --- | --- | --- |
| 1.4 nM |  | CS(=O)(=O)C1(c2cc(N3CCOCC3)nc(-c3ccc(NC(=O)NC4CC4)cc3)n2)CCC1 [Example 12p, 3-cyclopropyl-1-[4-[4-(1-methylsulfonylcyclobutyl)-6-morpholin-4-ylpyrimidin-2-yl]phenyl]urea] |
| 1.62 nM |  | CNC(=O)Nc1ccc(-c2nc(N3CCOCC3)cc(C3(S(C)(=O)=O)CCC3)n2)cc1 [Example 12q, 3-methyl-1-[4-[4-(1-methylsulfonylcyclobutyl)-6-morpholin-4-ylpyrimidin-2-yl]phenyl]urea] |
| 0.991 nM |  | CS(=O)(=O)C1(c2cc(N3CCOCC3)nc(-c3ccc(NC(=O)NCCO)cc3)n2)CCC1 [Example 12r, 3-(2-hydroxyethyl)-1-[4-[4-(1-methylsulfonylcyclobutyl)-6-morpholin-4-ylpyrimidin-2-yl]phenyl]urea] |
| 134 nM | 117 nM | CN(C)CCNC(=O)Nc1ccc(-c2nc(N3CCOCC3)cc(C3(S(C)(=O)=O)CCC3)n2)cc1 [Example 12s, 3-(2-dimethylaminoethyl)-1-[4-[4-(1-methylsulfonylcyclobutyl)-6-morpholin-4-ylpyrimidin-2-yl]phenyl]urea] |
|  | 3.57 nM | O=C(Nc1ccc(-c2nc(N3CCOCC3)cc(C3(S(=O)(=O)C4CC4)CC3)n2)cc1)NC1CC1 [Example 13, 3-Cyclopropyl-1-[4-[4-(1-cyclopropylsulfonylcyclopropyl)-6-morpholin-4-ylpyrimidin-2-yl]phenyl]urea] |
|  | 3.41 nM | CNC(=O)Nc1ccc(-c2nc(N3CCOCC3)cc(C3(S(=O)(=O)C4CC4)CC3)n2)cc1 [Example 13a, 1-[4-[4-(1-cyclopropylsulfonylcyclopropyl)-6-morpholin-4-ylpyrimidin-2-yl]phenyl]-3-methylurea] |
|  | 3.7 nM | CCNC(=O)Nc1ccc(-c2nc(N3CCOCC3)cc(C3(S(=O)(=O)C4CC4)CC3)n2)cc1 [Example 13b, 1-[4-[4-(1-cyclopropylsulfonylcyclopropyl)-6-morpholin-4-ylpyrimidin-2-yl]phenyl]-3-ethylurea] |
|  | 3.51 nM | O=C(NCCO)Nc1ccc(-c2nc(N3CCOCC3)cc(C3(S(=O)(=O)C4CC4)CC3)n2)cc1 [Example 13d, 1-[4-[4-(1-cyclopropylsulfonylcyclopropyl)-6-morpholin-4-ylpyrimidin-2-yl]phenyl]-3-(2-hydroxyethyl)urea] |
|  | 30.1 nM | CC(C)(CO)NC(=O)Nc1ccc(-c2nc(N3CCOCC3)cc(C3(S(=O)(=O)C4CC4)CC3)n2)cc1 [Example 13e, 1-[4-[4-(1-cyclopropylsulfonylcyclopropyl)-6-morpholin-4-ylpyrimidin-2-yl]phenyl]-3-(1-hydroxy-2-methylpropan-2-yl)urea] |
|  | 386 nM | CN(C)CCNC(=O)Nc1ccc(-c2nc(N3CCOCC3)cc(C3(S(=O)(=O)C4CC4)CC3)n2)cc1 [Example 13f, 1-[4-[4-(1-cyclopropylsulfonylcyclopropyl)-6-morpholin-4-ylpyrimidin-2-yl]phenyl]-3-(2-dimethylaminoethyl)urea] |
|  | 4.79 nM | CCCNC(=O)Nc1ccc(-c2nc(N3CCOCC3)cc(C3(S(=O)(=O)C4CC4)CC3)n2)cc1 [Example 13g, 1-[4-[4-(1-cyclopropylsulfonylcyclopropyl)-6-morpholin-4-ylpyrimidin-2-yl]phenyl]-3-propylurea] |
|  | 10.6 nM | O=C(NCCCO)Nc1ccc(-c2nc(N3CCOCC3)cc(C3(S(=O)(=O)C4CC4)CC3)n2)cc1 [Example 13h, 1-[4-[4-(1-cyclopropylsulfonylcyclopropyl)-6-morpholin-4-ylpyrimidin-2-yl]phenyl]-3-(3-hydroxypropyl)urea] |
|  | 2.75 nM | Cn1cc(NC(=O)Nc2ccc(-c3nc(N4CCOCC4)cc(C4(S(=O)(=O)C5CC5)CC4)n3)cc2)cn1 [Example 13i, 1-[4-[4-(1-cyclopropylsulfonylcyclopropyl)-6-morpholin-4-ylpyrimidin-2-yl]phenyl]-3-(1-methylpyrazol-4-yl)urea] |
|  | 17.8 nM | O=C(Nc1ccc(-c2nc(N3CCOCC3)cc(C3(S(=O)(=O)C4CC4)CCCC3)n2)cc1)NC1CC1 [Example 13j, 3-cyclopropyl-1-[4-[4-(1-cyclopropylsulfonylcyclopentyl)-6-morpholin-4-ylpyrimidin-2-yl]phenyl]urea] |
|  | 17.9 nM | CNC(=O)Nc1ccc(-c2nc(N3CCOCC3)cc(C3(S(=O)(=O)C4CC4)CCCC3)n2)cc1 [Example 13k, 1-[4-[4-(1-cyclopropylsulfonylcyclopentyl)-6-morpholin-4-ylpyrimidin-2-yl]phenyl]-3-methylurea] |
